Values of other authors as cited in US20030181473A1, “Farnesyl protein transferase inhibitor combinations with taxane compounds” (priority 2000, published 2003).

How the values were obtained:
colon cancer (LoVo) = conditions: combination of paclitaxel and the farnesyl transferase inhibitor; mouse colon cancer (LoVo) model
human tumor cells = conditions: combination of paclitaxel and the farnesyl transferase inhibitor, in vitro

Cn1cncc1C(N)(c1ccc(Cl)cc1)c1ccc2c(c1)c(-c1cccc(Cl)c1)cc(=O)n2C (single isomer, unassigned; (+)) [(+)-6-[amino(4-chlorophenyl)(1-methyl-1H-imidazol-5-yl)methyl]-4-(3-chlorophenyl)-1-methyl-2(1H)-quinolinone]
anti-tumor effect of the combination (colon cancer (LoVo)): additive anti-tumor effect
anti-tumor effect of the combination (human tumor cells): additive anti-tumor effect
